Measured values reported in patent publication US7151180B2, “Potassium channel modulators” (Bristol-Myers Squibb Company, priority 2003, dated 2006).

Tests used:
[1] = tested on: rabbit corpus cavernosum tissue; test: Relaxation of rabbit corpus cavernosum strips (phenylephrine-induced force); settings: Oryctolagus cuniculus, inhibition of phenylephrine (3 μM)-induced force compared to vehicle control, read-out: % Inhibition of force (RCC strips)
Description: The ability of the compounds of the invention to relax rabbit corpus cavernosum tissue as a model for the treatment of erectile dysfunction is described as follows. New Zealand white rabbits (3.4–3.7 kg) were euthanized by sodium pentobarbital (100 mg/kg) overdose. The penis from each animal was rapidly removed and immersed in a cold oxygenated modified Krebs Henseleit bicarbonate buffer. The penis' outer tunica was removed and the corpus cavernosum smooth muscle obtained and cut into strips approximately 3–5 mm long. The strips were suspended in tissue baths containing physiological salt solution (see above), and allowed to equilibrate for at least one hour under resting tension of 1.0 gram. Isometric force was measured as described above. Tissue strips were stimulated with the α-agonist phenylephrine (3 μM) and allowed to reach a steady level of force prior to the addition of test compounds. The results are expressed as the percentage inhibition of phenylephrine-induced force as compared to vehicle control.

[2] = tested on: cloned mammalian (mSlo or hSlo) BK channels expressed in Xenopus oocytes; test: Assay for BK channel openers: two-electrode voltage clamp of BK-mediated outward current in Xenopus oocytes; assay type: cell-based; settings: at 20 μM; percent increase over BK current in controls; voltage step to +140 mV; 5–10 oocytes
Description: The ability of the compounds of the invention to open BK channels and increase whole-cell outward (K^+) BK-mediated currents was assessed under voltage-clamp conditions by determining their ability to increase cloned mammalian (mSlo or hSlo) BK-mediated outward current heterologously expressed in Xenopus oocytes [Butler, A., et al., Science 1993, 261, 221–224; Dworetzky, S. I., et al., Mol. Brain Res. 1994, 27, 189–193; Gribkoff, V. K., et al., Mol. Phannacol. 1996, 50, 206–217]. The two BK constructs employed represent nearly structurally identical homologous proteins, and have proven to be pharmacologically indistinguishable in our tests. To isolate BK current from native (background, non-BK) current, the specific and potent BK channel-blocking toxin iberiotoxin (IBTX) [Galvez, A., et al., J. Biol. Chem. 1990, 265, 11083–11090] was employed at a supramaximal concentration, e.g., 50–100 nanomolar (“nM”). The relative contribution of BK channel-mediated current to total outward current was determined by subtraction of the current remaining in the presence of IBTX (non-BK current) from the current profiles obtained in all other experimental conditions (control, drug, and wash) [Gribkoff, V. K. et al., Mol. Pharmacol. 1996, 50, 206–217]. […] All compounds were tested in 5–10 oocytes and are reported at the indicated concentration of 20 micromolar (“μM”) (or as otherwise indicated); the effect of the selected compounds of the invention on BK current was expressed as the percent of control IBTX-sensitive current at a single transmembrane voltage (+140 mV) and is listed in Table 1.Recordings were accomplished using standard two-electrode voltage clamp techniques [Stuhmer, W., et al., Methods in Enzymology, 1992, 207, 319–339]; voltage-clamp protocols consisted of 500–750 milliseconds (“ms”) duration step depolarizations, from a holding potential of −60 mV, to a final voltage up to +140 mV in 20 mV steps. The experimental media (modified Barth's solution) consisted of millimolar (“mM”): NaCl (88), NaHCO3 (2.4), KCl (1.0), HEPES (10), MgSO4 (0.82), Ca(NO3)2 (0.33), CaCl2 (0.41); pH 7.5.

[3] = tested on: rat small intestine tissue; test: Relaxation of rat small intestine (ileum) strips (nifedipine-sensitive force); settings: integral of nifedipine-sensitive force, 30 min post-compound
Description: The ability of the compounds of the invention to relax rat small intestine tissue as a model for the treatment of irritable bowel syndrome is described as follows. Male rats (Harlan, Sprague Dawley, 250–350 g) were sacrificed by decapitation. A portion of small intestine (ileum) was removed and the attached connective tissues and intestinal contents removed. The ileum was cut into segments of ≦1 cm in length. The segments were mounted longitudinally between fixed hooks in organ baths containing warm (37° C.) physiological salt solution (composition in mM: NaCl 118.4,KCl 4.7,KH2PO4 1.2,MgSO4 1.2,CaCl2 1.8,Glucose 10.1, NaHCO3 25; gassed with 95% O2/5% CO2, pH 7.4). A stable tension of ˜1.5 g was maintained in the tissue segments during the equilibration period of 45 minutes. Changes in muscle tension were measured with isometric force transducers (Grass, FT-03C) and recorded using AcqKnowledge data acquisition system (AcqKnowledge for MP100WS, Biopac Systems Inc., Goleta, Calif.). Compound or vehicle was added in the baths for 30 minutes. “Zero” active force was established at the end of the experiment using nifedipine (20 μM). The effects of compounds or vehicle on force was determined by measuring the integral of nifedipine-sensitive force (including resting tone and spontaneous contractions) pre- and 30 min post-compound (or vehicle) addition. Results are expressed as the percentage inhibition of force. DMSO vehicle inhibited force (integral) by −0.6±3.0% (n=25).

Row | SMILES | inhibition [1] [%] | % MaxiK opening [2] [%] | % Inhibition of force (RSI strips) [3] [%] | melting point [°C]
1 | Cn1c(=O)c(Sc2ccc(N)cc2)c(-c2cc(Cl)ccc2O)c2cc(C(F)(F)F)ccc21 [Example 2, 3-[(4-Aminophenyl)thio]-4-(5-chloro-2-hydroxyphenyl)-1-methyl-6-(trifluoromethyl)-2(1H)-quinolinone] | 7 | 144 | – | –
2 | Nc1ccc(Sc2c(-c3cc(Cl)ccc3O)c3cc(C(F)(F)F)ccc3[nH]c2=O)cc1 [Example 1, 3-[(4-Aminophenyl)thio]-4-(5-chloro-2-hydroxyphenyl)-6-(trifluoromethyl)-2(1H)-quinolinone] | 27 | 392 | 10 | –
3 | O=c1[nH]c2ccc(C(F)(F)F)cc2c(-c2cc(Cl)ccc2O)c1Sc1ccc(O)cc1 [Example 6, 4-(5-Chloro-2-hydroxyphenyl)-3-(4-hydroxyphenylsulfanyl)-6-trifluoromethyl-1H-quinolin-2-one] | 8 | 307 | 21 | 180 to 190
4 | Cn1cnnc1Sc1c(-c2cc(Cl)ccc2O)c2cc(C(F)(F)F)ccc2[nH]c1=O [Example 5, 4-(5-Chloro-2-hydroxy-phenyl)-3-(4-methyl-4H-[1,2,4]triazol-3-ylsulfanyl)-6-trifluoromethyl-4a,8a-dihydro-1H-quinolin-2-one] | 35 | 167 | – | –
5 | COc1ccc(Cl)cc1-c1c(Sc2ccc(C(=O)O)cc2)c(=O)[nH]c2ccc(C(F)(F)F)cc12 [Example 11, 4-[4-(5-Chloro-2-methoxy-phenyl)-2-oxo-6-trifluoromethyl-1,2-dihydro-quinolin-3-ylsulfanyl]-benzoic acid] | – | 177 | – | –
6 | O=c1[nH]c2ccc(C(F)(F)F)cc2c(-c2cc(Cl)ccc2O)c1Sc1ccccc1O [Example 9, 4-(5-Chloro-2-hydroxyphenyl)-3-(2-hydroxyphenylsulfanyl)-6-trifluoromethyl-1H-quinolin-2-one] | – | 145 | – | 290 to 292
7 | O=C(O)c1ccc(Sc2c(-c3cc(Cl)ccc3O)c3cc(C(F)(F)F)ccc3[nH]c2=O)cc1 [Example 10, 4-[4-(5-Chloro-2-hydroxy-phenyl)-2-oxo-6-trifluoromethyl-1,2-dihydro-quinolin-3-ylsulfanyl]-benzoic acid] | 29 | 209 | – | –
8 | O=c1[nH]c2ccc(C(F)(F)F)cc2c(-c2cc(Cl)ccc2O)c1SCc1ccc(O)cc1 [Example 8, 4-(5-Chloro-2-hydroxyphenyl)-3-(4-hydroxybenzylsulfanyl)-6-trifluoromethyl-1H-quinolin-2-one] | 33 | 227 | – | 206 to 208
9 | Nc1nnc(Sc2c(-c3cc(Cl)ccc3O)c3cc(C(F)(F)F)ccc3[nH]c2=O)s1 [Example 7, 3-(5-Amino-[1,3,4]thiadiazol-2-ylsulfanyl)-4-(5-chloro-2-hydroxyphenyl)-6-trifluoromethyl-1H-quinolin-2-one] | 45 | 237 | 40 | 260 to 270
10 | O=c1[nH]c2ccc(C(F)(F)F)cc2c(-c2cc(Cl)ccc2O)c1Sc1ncccn1 [Example 3, 4-(5-Chloro-2-hydroxy-phenyl)-3-(pyrimidin-2-ylsulfanyl)-6-trifluoromethyl-1H-quinolin-2-one] | – | 144 | – | 302 to 303
11 | O=c1[nH]c2ccc(C(F)(F)F)cc2c(-c2cc(Cl)ccc2O)c1Sc1ccncc1 [Example 4, 4-(5-Chloro-2-hydroxy-phenyl)-3-(pyridin-4-ylsulfanyl)-6-trifluoromethyl-1H-quinolin-2-one] | 36 | 206 | 17 | 257 to 260
